Source: US20160252494A1, “MICROSCALE MICROPATTERNED ENGINEERED IN VITRO TISSUE” (priority 2005, published 2016)
Read-outs that look alike come from different tables or passages of the source.

Key:
[1] = test system: micropatterned human co-cultures (primary human hepatocytes with 3T3-J2 fibroblasts); conditions: MTT
Procedure: Cultures were incubated with various concentrations of compounds dissolved in culture medium for 24 hours (acute toxicity) or extended time periods (chronic toxicity, 1-4 days). Cell viability was subsequently measured via the MTT (3-(4,5-dimethylthiazol-2-yl)-2,5-diphenyl tetrazolium bromide; Sigma) assay, which involves cleavage of the tetrazolium ring by mitochondrial dehydrogenase enzymes to form a purple precipitate. MTT was added to cells in DMEM without phenol red at a concentration of 0.5 mg/mL. After an incubation time of 1 hour, the purple precipitate was dissolved in a 1:1 solution of DMSO and Isopropanol. The absorbance of the solution was measured at 570 nm (SpectraMax spectrophotometer, Molecular Devices, Sunnyvale, Calif.).
Use of optimized micropatterned human co-cultures to evaluate metabolism and toxicity of xenobiotics. […] Acute toxicity tests involved incubating eight day old co-cultures for 24 hrs with various drugs, some with known clinical hepatotoxic potential. After the incubation time period, the cell culture medium was aspirated and a viability assay was conducted (MTT assay—commercially available). […]
To assess utility of the microscale human liver tissue for toxicity assays, the acute and chronic toxicity of model hepatotoxins were quantified. […]

CYP2B [2] = test system: CYP2B
CYP1A2 [3] = conditions: human and rat, 4 days, 50 µM
CYP2A6 [4] = test system: CYP2A6
Procedure: The reactions were stopped by collection of the incubation medium. Then, potential metabolite conjugates formed via Phase II activity were hydrolyzed by incubation of supernatants with β-glucuronidase/arylsulfatase (Roche, IN) for 2 hours at 37° C. Samples were diluted 1:1 in quenching solution and fluorescent metabolite formation was quantified by means of a fluorescence micro-plate reader (Molecular Devices, Sunnyvale, Calif.) as described elsewhere in detail. Production of 7-HC from CM is a reaction (CM 7-Hydroxylation) mediated by CYP2A6 in humans, production of 7-HFC from BFC or MFC (dealkylation) is mediated by several different CYP450s, and production of RR from ER (ER Odealkylation) is mediated by CYP1A2.
Cytochrome-P450 Induction. Stock solutions of prototypic CYP450 inducers (Sigma) were made in dimethylsulfoxide (DMSO), except for Phenobarbital, which was dissolved in water. Cultures were treated with inducers (Rifampin 25 μM, β-Naphthoflavone 30 μM or 50 μM, Phenobarbital 1 mM, Omeprazole 50 μM) dissolved in hepatocyte culture medium for 4 days. Control cultures were treated with vehicle (DMSO) alone for calculations of fold induction. To enable comparisons across inducers, DMSO levels were kept constant at 0.06% (v/v) for all conditions.

CYP2B [5] = test: CYP2B protein induction in static and perfused bioreactor hepatocyte cultures
CYP3A [6] = test: CYP3A protein induction in static and perfused bioreactor hepatocyte cultures
CYP2A6 [7] = biological target: T1, CYP2A6 (Homo sapiens, UniProt P11509)
T1 sequence (P11509 1-494): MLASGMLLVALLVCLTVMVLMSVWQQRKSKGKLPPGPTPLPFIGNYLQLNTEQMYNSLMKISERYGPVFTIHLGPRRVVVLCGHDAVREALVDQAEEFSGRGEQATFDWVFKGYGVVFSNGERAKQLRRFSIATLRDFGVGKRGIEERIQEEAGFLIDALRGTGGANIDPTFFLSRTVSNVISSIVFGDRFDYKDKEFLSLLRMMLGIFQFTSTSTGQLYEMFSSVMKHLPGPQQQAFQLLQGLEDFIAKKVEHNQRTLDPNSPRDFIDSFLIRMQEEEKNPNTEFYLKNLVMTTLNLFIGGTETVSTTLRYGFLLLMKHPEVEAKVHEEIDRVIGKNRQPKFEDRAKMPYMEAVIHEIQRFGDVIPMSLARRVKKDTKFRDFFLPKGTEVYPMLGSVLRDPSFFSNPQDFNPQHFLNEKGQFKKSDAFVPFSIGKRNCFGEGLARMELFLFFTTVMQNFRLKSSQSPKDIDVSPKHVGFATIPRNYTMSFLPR
Procedure: Mitochondrial activity was measured using the MTT assay. All data was normalized to vehicle-only controls. […] ER, Ethoxy-resorufin. […] Error bars represent standard error of the mean (n=3).
The reactions were stopped by collection of the incubation medium. Then, potential metabolite conjugates formed via Phase II activity were hydrolyzed by incubation of supernatants with β-glucuronidase/arylsulfatase (Roche, IN) for 2 hours at 37° C. Samples were diluted 1:1 in quenching solution and fluorescent metabolite formation was quantified by means of a fluorescence micro-plate reader (Molecular Devices, Sunnyvale, Calif.) as described elsewhere in detail.

CYP1A2 [8] = test: Induction of CYP1A2 activity in microscale liver tissues (ethoxyresorufin dealkylation); conditions: incubation 1 or 3 days, varying dose
CYP3A [9] = conditions: hepatocytes
[10] = static cultures, 48 hour induction
[11] = treated 4 days with prototypic inducers

Compound: [Cl][Cd][Cl] [Cadmium, Cadmium chloride]
- Relative acute toxicity in vitro ([1]; 24 hrs incubation): severely toxic
- Shape of dose-dependent toxicity profile ([1]; acute exposure 24 hours): relatively linear toxic profile

Compound: C[C@@H]1C[C@H]2[C@@H]3CCC4=CC(=O)C=C[C@]4(C)[C@@]3(F)[C@@H](O)C[C@]2(C)[C@@]1(O)C(=O)CO [DEX, dexamethasone]
- CYP2B induction (CYP2B [2]): high levels

Compound: COc1ccc2[nH]c([S+]([O-])Cc3ncc(C)c(OC)c3C)nc2c1 (stereo not shown) [Omeprazole]
- Effectiveness of CYP1A2 induction in human over rat models (CYP1A2 [3]): 8 fold
- CYP2A6 induction (CYP2A6 [4]): weaker effects

Compound: CCC1(c2ccccc2)C(=O)NC(=O)NC1=O [Phenobarbital]
- CYP2B expression (CYP2B [5]; perfused cultures, 36 hours): Dramatic expression of both CYPs over controls
- CYP2B expression (CYP2B [5]; [10]): moderate
- CYP3A expression (CYP3A [6]; perfused cultures, 36 hours): Dramatic expression of both CYPs over controls
- CYP3A expression (CYP3A [6]; [10]): low
- CYP2A6 induction (CYP2A6 [4]; [11]): induction was observed

Compound: CO[C@H]1/C=C/O[C@@]2(C)Oc3c(C)c(O)c4c(O)c(c(/C=N/N5CCN(C)CC5)c(O)c4c3C2=O)NC(=O)/C(C)=C\C=C\[C@H](C)[C@H](O)[C@@H](C)[C@@H](O)[C@@H](C)[C@H](OC(C)=O)[C@@H]1C [Rifampin]
- CYP2A6 induction (CYP2A6 [4]): induction was observed

Compound: COc1c2occc2cc2ccc(=O)oc12 [methoxsalen, Methoxsalen]
- Inhibition of CYP2A6 activity (CYP2A6 [7]): dose-dependent inhibition

Compound: O=c1cc(-c2ccccc2)oc2ccc3ccccc3c12 [β-Naphthoflavone]
- Induction of CYP1A2 activity (CYP1A2 [8]): dose and time-dependent manner
- CYP2A6 induction (CYP2A6 [4]; [11]): weaker effects

Compound: EGF: epidermal growth factor, added to perfusion media with PB or DEX
- Effect on DEX-induced CYP3A induction (CYP3A [9]): remained uniform
- Effect on DEX-induced CYP2B (CYP2B [2]): significant shift in CYP2B spatial distribution was noted from inlet regions to the outlet
